From US4005217A, “Treatment of helminth infections with substituted phenyl-thiourea derivatives” (May & Baker Limited, priority 1970, dated 1977)
Where a name gives a salt, the structure may show the parent alone. Read-outs that look alike come from different tables or passages of the source.

Experiments:
H. contortus = experiment: Activity in lambs by subcutaneous injection against 4th larval and adult stages; format: in vivo; details: 75 mg/kg subcutaneous injection (18% w/v aqueous solution)
Experimental: (§1) b. 8 Worm-free lambs were each infected with H. contortus (approximately 7,000) and T. colubriformis ((approximately 15,000) infective larvae. After 7 days, 2 lambs were treated by subcutaneous injection of an 18% w/v aqueous solution at 75 mg/kg animal body weight of the test compound against the 4th larval stages of the worms. 28 Days after infection, 2 lambs were similarly treated against the adult stages of the worms. 35 Days after infection all 8 lambs were killed for post-mortem worm counts and the burdens of each worm species in the 4 treated animals compared with those in the remaining 4 untreated animals.

T. colubriformis = experiment: as above; format: in vivo; details: 75 mg/kg subcutaneous injection (18% w/v aqueous solution)
Experimental: as §1

[1] = system: Nippostrongylus brasiliensis; experiment: Test 1: activity against roundworms in rats, treatment 6 days after infection (patent infection), worm counts 48 hours after treatment; format: in vivo; details: Nippostrongylus brasiliensis, po, 48 h, Test 1, 1000 mg/kg oral, read-out: Percentage reduction in N.brasiliensis load
Experimental: Test 1 - Rats were infected with 100 Nippostrongylus brasiliensis larvae each, by the subcutaneous route. After 6 days, when the infection was patent, the rats were randomised and alloted to groups of 10 animals each, ready for treatment. One group was used for each dose level of the test compound and, in each experiment, one group was left untreated as a control. All the rats were killed for post-mortem worm counts 48 hours after treatment. The activity, expressed in terms of the percentage reduction in mean worm load of the treated group compared with the untreated group, is shown in Table I.

[2] = system: Nippostrongylus brasiliensis; experiment: Test 2: activity against roundworms in rats, treatment 24 hours after infection, worm counts 6 days after dosing; format: in vivo; details: Nippostrongylus brasiliensis, 144 h, rats, read-out: Percentage reduction in N.brasiliensis load
Experimental: Test 2 -- Rats were infected with 100 Nippostrongylus brasiliensis larvae each, by the subcutaneous route. After 24 hours the rats were randomised and allotted to groups of 5 animals each, ready for treatment. Doses of the test compound were then administered to each group by the oral, subcutaneous and intraperitoneal routes respectively, one group of 10 animals being left untreated as a control. All the rats were killed for post-mortem worm counts 6 days after dosing. The activities, expressed in terms of the percentage reductions in mean worm load of the treated groups or damage to the worms compared with the untreated control group, are given below in Table I.

Trichinella spiralis = experiment: Activity against roundworms in mice; format: in vivo; details: 100 mg/kg subcutaneous at 2 hours and 24 hours post infection, killed 5 days after second dose
Experimental: Mice were infected with approximately 100 Trichinella spiralis larvae each, by the oral route. The mice were randomised and allotted to two groups of 4 animals each. Doses of 1-methoxycarbonyl-3-(2-dimethylaminoacetamidophenyl)thiourea hydrochloride were then administered to one group by the subcutaneous route at 2 hours post infection and again at 24 hours post infection, one group of 4 animals being left untreated as a control. The doses given to the mice were 100 mg/kg animal body weight. All the mice were killed for postmortem examination 5 days after the second dose. The activity, expressed in terms of the percentage reduction in mean worm load of the treated group compared with the control group, was 95%.

Haemonchus contortus = experiment: Activity against mature adult stages in lambs, oral treatment (Table III); format: in vivo; details: 120 h, 15 mg/kg oral, read-out: Mean percentage reduction in worm burdens, H.contortus
Experimental: (§2) ii. 20 Worm-free lambs were each infected with H. contortus (approximately 5,600), T. axei (approximately 9,300) and T. colubriformis (approximately 10,000) infective larvae. After 22 days, 16 lambs were treated orally with 15 mg/kg animal body weight of the 8 test compounds, i.e. 2 lambs per compound, against the mature adult stages of the worms. 27 Days after infection, all 20 lambs were killed for post-mortem worm counts and the burden of each worm species in the 16 treated animals compared with those in the remaining 4 untreated control animals.

Trichostrongylus axei = experiment: as above; format: in vivo; details: 120 h, 15 mg/kg oral, read-out: Mean percentage reduction in worm burdens, T.axei
Experimental: as §2

[3] = system: Trichostrongylus colubriformis; experiment: as above; format: in vivo; details: 120 h, 15 mg/kg oral, read-out: Mean percentage reduction in worm burdens, T.colubriformis
Experimental: as §2

[4] = system: Nippostrongylus brasiliensis eggs; experiment: In vitro activity against roundworms (egg hatching and larvae); format: cell-based; details: 96 h, tested at 100, 10, 1 and 0.1 μg/ml, inhibited or delayed hatching of eggs, or killed, retarded growth or reduced activity of larvae during 4 days, read-out: M.I.C. (minimum inhibitory concentration)
Experimental: Compounds of formula I were tested at concentrations of 100 μg/ml, 10 μg/ml, 1 μg/ml and 0.1 μg/ml in small glass containers. If the compound was not soluble in water, a volatile organic medium, e.g. acetone, chloroform, ethanol or methanol was used. An amount of material appropriate for each final concentration was measured and placed in duplicate test containers and if an organic solvent was used it was allowed to evaporate completely. Nippostrongylus brasiliensis eggs were recovered by saturated saline centrifugal flotation from the faeces of rats heavily infected with third stage larvae six days previously. They were washed several times in water and suspended in water in a suitable concentration. From 25-50 eggs were placed in each container and the final volume was made up by the addition of a very dilute aqueous suspension of mouse faeces which served as the growth medium. The minimum inhibitory concentrations of each compound (M.I.C.), shown in the following Table V was the minimum concentration in μg/ml total liquid volume at which it inhibited or delayed hatching of eggs, or at which it killed, retarded growth or reduced activity of larvae during the 4 days after beginning the test.

For `COC(=O)NC(=S)Nc1ccccc1NC(=O)CN(C)C` [1-methoxycarbonyl-3-(2-dimethylaminoacetamidophenyl)thiourea hydrochloride], the “Mean percentage reduction in worm burdens, H.contortus” value (H. contortus; 4th larval stage) was 87.1%, the “Mean percentage reduction in worm burdens, H.contortus” value (H. contortus; adult stage) was 95.3% and the “Mean percentage reduction in worm burdens, T.colubriformis” value (T. colubriformis; 4th larval stage) was 99.9%. The “Mean percentage reduction in worm burdens, T.colubriformis” value (T. colubriformis; adult stage) was 99.7%, the inhibition in vivo at 1000 mg/kg [1] was 91% and the inhibition in vivo at 1000 mg/kg ([2]; Test 2, 1000 mg/kg oral) was 100%. For the same compound, the inhibition in vivo at 50 mg/kg ([2]; ip, Test 2, 50 mg/kg intraperitoneal) was 89%, the inhibition in vivo at 100 mg/kg ([2]; ip, Test 2, 100 mg/kg intraperitoneal) was 99% and the inhibition in vivo at 250 mg/kg ([2]; ip, Test 2, 250 mg/kg intraperitoneal) was 96%. It also gave an inhibition in vivo at 60 mg/kg ([2]; sc, Test 2, 60 mg/kg subcutaneous) of 89.8%, an inhibition in vivo at 250 mg/kg ([2]; sc, Test 2, 250 mg/kg subcutaneous) of 99.5% and an inhibition in vivo at 500 mg/kg ([2]; sc, Test 2, 500 mg/kg subcutaneous) of 99.5%. The “percentage reduction in mean worm load” value (Trichinella spiralis) was 95%, the inhibition in vivo at 15 mg/kg (Haemonchus contortus) was 60% and the inhibition in vivo at 15 mg/kg (Trichostrongylus axei) was 78%. The inhibition in vivo at 15 mg/kg [3] was 43.4% and the MIC [4] was 1 µg/mL.
